For this experiment, the system named is phosphorylation of Akt (S473). Kind of experiment: Treatment of Capan-1 Cosmc KO cells with HER2 inhibitor, Akt phosphorylation by immunoblotting. Format: cell-based, human. Conditions: 24 h, FIG. 9B. A general note: In western blotting, separated proteins are transferred to a membrane and probed.

As for `COCC(=O)NC/C=C/c1ccc2ncnc(Nc3ccc(Oc4ccc(C)nc4)c(C)c3)c2c1` [CP724714], the “phosphorylation of Akt” value is “decreases the phosphorylation of Akt in a dose dependent manner”.

The values are drawn from patent US10023652B2, “Method of targeting glycoproteins to treat cancer” (Board of Regents of the University of Nebraska, priority 2013, dated 2018).
